According to paper PMC7298613, “Degradation of okadaic acid in seawater by UV/TiO2 photocatalysis – Proof of concept” (The Science of the Total Environment, 2020):

Target: T1, protein phosphatase-1 catalytic subunit (PP1c) (Oryctolagus cuniculus, UniProt P62139)
T1 construct: gene PPP1CA; catalytic subunit
Assay: colorimetric pNPP phosphatase inhibition assay, absorbance at […] nm, PP1 […]
Format: biochemical

T1 sequence (P62139 2-330): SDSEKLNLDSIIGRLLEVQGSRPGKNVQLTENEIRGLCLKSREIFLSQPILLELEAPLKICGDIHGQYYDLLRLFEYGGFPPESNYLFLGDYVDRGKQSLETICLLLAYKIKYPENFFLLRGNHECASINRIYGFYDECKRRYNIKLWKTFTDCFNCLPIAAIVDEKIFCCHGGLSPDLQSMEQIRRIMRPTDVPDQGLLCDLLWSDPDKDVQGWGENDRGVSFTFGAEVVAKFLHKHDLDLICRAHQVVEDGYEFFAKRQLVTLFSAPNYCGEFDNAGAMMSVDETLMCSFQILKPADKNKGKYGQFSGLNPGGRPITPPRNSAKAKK

## C=C1[C@@H](O)[C@@H]2O[C@]3(CC[C@H](/C=C/[C@@H](C)[C@@H]4CC(C)=C[C@@]5(O[C@H](C[C@@](C)(O)C(=O)O)CC[C@H]5O)O4)O3)CC[C@H]2O[C@@H]1[C@@H](O)C[C@H](C)[C@H]1O[C@@]2(CCCCO2)CC[C@H]1C [OA, okadaic acid]
  IC50: 1180 nM
